Read-outs that look alike come from different tables or passages of the source.
Columns and labels:
[1] = rat, J.Pharmacobio-Dyn., 13, 688, 1990; cited from earlier work
guinea pig skin = conditions: shaved back, external application, Fragrance Journal 1997; cited from earlier work
human skin = conditions: cream containing the compound applied, Fragrance Journal 1997; cited from earlier work
[2] = tested on: keratinocytes (HaCaT) derived from human skin epidermis; test: Protective effect on cell death of keratinocytes (HaCaT) by UVB irradiation (WST-1 cell survival rate); type: cell-based; conditions: same concentration, compared with ascorbic acid or 2-O-(α-D-glucopyranosyl)ascorbic acid; FIG. 1
Protocol: Human skin keratinocytes HaCaT (cell line gifted by Dr. Fusenig of Heidelberg University) was seeded to 10% bovine fetal serum (FBS)-containing Dulbecco modified Eagle medium (DMEM) at 10,000 cells/well in a 24-well plate, and after 18 hours, 35 millijoule/square centimeter (mJ/cm^2) of UBV (maximum wavelength 312 nm) was irradiated. Two hours before the irradiation, 20 to 100 μM of 2-O-(β-D-glucopyranosyl)ascorbic acid was added, and such ascorbic acid was removed immediately before the irradiation and then rinsed. Irradiation was performed in PBS in the absence of a drug, and after irradiation, culturing was continued in a FBS 10%-containing DMEM medium, and 24 hours after irradiation, a cell survival rate was investigated by a method for measuring mitochondrion dehydrogenase activity with the use of 2-(4-iodophenyl)-3-(4-nitrophenyl)-5-(2,4-disulfophenyl)-2H-tetrazolium monosodium salt (WST-1). Similarly, as Comparative Example, 2-O-(α-D-glucopyranosyl) ascorbic acid and ascorbic acid were studied, and the results are also shown in FIG. 1.

[3] = tested on: human skin keratinocytes HaCaT; test: Concentration of intracellular ascorbic acid in human skin keratinocytes; type: cell-based; conditions: compared with 2-O-(α-D-glucopyranosyl)ascorbic acid and ascorbic acid; FIG. 2
Protocol: At 3 to 24 hours after addition, a medium is removed, rinsed twice with ice-cooled PBS, and a cell sheet is peeled with trypsin to make single cell state. This is suspended in PBS containing 50 μM dithiothreitol (DTT), and rinsed three times by centrifugation. The cell suspension is disrupted with a potter-type teflon (registered trademark) homogenizer, and then frozen and thawed twice. […] SHODEX® ODSpak (manufactured by SHOWA DENKO K.K., 4.6×150 mm) , mobile phase: 0.1 M KH2PO4-H3PO4 (pH 2.35)-0.1 mM EDTA-2Na, flow rate: 1.5 mL/min).

[4] = tested on: normal human dermal fibroblasts (NHDF); test: Collagen synthesis of normal human dermal fibroblasts (3H-proline incorporation, collagenase-sensitive); type: cell-based; conditions: compared with 2-O-(α-D-glucopyranosyl)ascorbic acid or ascorbic acid; FIG. 3
Protocol: Normal human dermal fibroblasts NHDF are seeded in a dish having a diameter of 100 millimeter at 370,000 cells. […] After additional 1 hour, 0.12 mL (120 μCi) of L-(2,3-^3H) proline is added, followed by culturing for 48 hours. After culturing, the medium is removed, and a cell sheet is rinsed with PBS four times. Then, cells are peeled with trypsin, cells are lysed with an alkali, and neutralized to obtain an intracellular protein. The protein is subjected to collagen degradation with collagenase of Clostridium to obtain a protein fraction, and radioactivity of the fraction is measured with a liquid scintillation counter using […]. Separately, radioactivity of an intracellular protein fraction which has not been treated with collagenase is similarly measured with a liquid scintillation counter. A difference between respective radioactivities obtained is adopted as collagen synthesis activity.

[5] = Pharmacokinetics at oral ingestion by a rat: intact form in blood; type: in vivo
[6] = tested on: human isolated skin piece; conditions: female, 5 h, 100 mM, pH 7.25
burn patient = conditions: applied, Japanese Cosmetic Science Society 1998; cited from earlier work
pig skin = conditions: 10% aqueous solution, pre-administration for 3 days to one week, Br. J. Dermatol. 1992; cited from earlier work

Structure (SMILES): O=C1O[C@H]([C@@H](O)CO)C(O)=C1O[C@H]1O[C@H](CO)[C@@H](O)[C@H](O)[C@H]1O [2-O-(α-D-glucopyranosyl)ascorbic acid]
- Intact form in blood after oral ingestion [1]: not detected as an intact form in blood
- Inducement of skin inflammation due to UVB irradiation (guinea pig skin): suppressed
- Pigmentation due to ultraviolet-ray irradiation (human skin): suppressed

Structure (SMILES): O=C1O[C@H]([C@@H](O)CO)C(O)=C1O[C@@H]1O[C@H](CO)[C@@H](O)[C@H](O)[C@H]1O [AβG, 2-O-(β-D-glucopyranosyl)ascorbic acid]
- Suppression of cell death of keratinocytes (HaCaT) due to UVB irradiation [2]: clearly suppressed more strongly cell death
- Concentration of intracellular ascorbic acid in human skin keratinocytes [3]: maintained at a highest concentration for a longest term
- Collagen synthesis by normal human dermal fibroblasts (NHDF) [4]: has higher activity
- Intact form in blood after oral ingestion [5]: detected in blood
- Ratio (%) of reduced form of vitamin C occupied in total vitamin C in skin, Dermis [6]: 25%
- Ratio (%) of reduced form of vitamin C occupied in total vitamin C in skin, Epidermis [6]: 67%
- Total vitamin C in skin, Dermis [6]: 3 nmol/g tissue
- Total vitamin C in skin, Epidermis [6]: 15 nmol/g tissue
- Uptake amount of AβG into skin piece, Dermis [6]: 500
- Uptake amount of AβG into skin piece, Epidermis [6]: 3,400

Structure (SMILES): O=C1O[C@H]([C@@H](O)CO)C(O)=C1OP(=O)(O)O [ascorbic acid 2-phosphate]
- Cure of burn (burn patient): cured without scar

Structure (SMILES): O=C1O[C@H]([C@@H](O)CO)C(O)=C1O [ascorbic acid]
- Inducement of skin inflammation due to UVB irradiation (guinea pig skin): suppressed
- Ultraviolet-ray disorder (pig skin): ultraviolet-ray disorder can be alleviated

Source: US7781409B2, “Composition for external use” (Suntory Holdings Limited, priority 2003, dated 2010)
